{"source": "patent US6077843A", "about": "“Aqueous suspensions of 9-hydroxyrisperidone fatty acid esters” (Janssen Pharmaceutica, N.V., priority 1996, dated 2000)", "key": {"[1]": {"assay": "Particle size distribution of the milled and sieved ester", "format": "physicochemical", "source_text": "# The ester was milled and sieved using appropriate nominal standard test sieves, yielding active ingredient having a particle size distribution as follows: […]"}, "[2]": {"assay": "Systemic and local tolerance of depot formulations (described in words)", "format": "in vivo"}, "[3]": {"assay": "Pharmacokinetic investigations on ester depot formulations (described in words)", "format": "in vivo", "details": "versus other C10-20 alkanoic acid esters"}, "[4]": {"details": "cited from earlier work"}, "[5]": {"details": "cited from earlier work", "remark": "listed apart in the source"}, "[6]": {"details": "compared with 9-hydroxy-risperidone; cited from earlier work"}, "[7]": {"details": "pamoate salt; cited from earlier work"}, "[8]": {"details": "compared with risperidone; cited from earlier work"}}, "data": [{"smiles": "CCCCCCCCCCCCCCCC(=O)OC1CCCn2c1nc(C)c(CCN1CCC(c3noc4cc(F)ccc34)CC1)c2=O", "note": "(stereo not shown) [9-hydroxyrisperidone palmitate ester]", "values": [{"measurement": "particle size, 10% of the particles (by volume)", "setting": "[1]; 10% by volume", "value": "≥ 15", "unit": "μm"}, {"measurement": "particle size, 50% of the particles (by volume)", "setting": "[1]; 50% by volume", "value": "≥ 5", "unit": "μm"}, {"measurement": "particle size, 90% of the particles (by volume)", "setting": "[1]; 90% by volume", "value": "≥ 0.5", "unit": "μm"}, {"measurement": "difference between small or large prodrug particles", "setting": "[2]; suspensions of the palmitate ester in sesame oil", "value": "No significant difference between small or large prodrug particles"}, {"measurement": "tolerance point of view", "setting": "[2]; versus other C10-20 alkanoic acid esters", "value": "superior ester"}, {"measurement": "pharmacokinetic point of view", "setting": "[3]", "value": "superior ester"}]}, {"smiles": "Cc1nc2n(c(=O)c1CCN1CCC(c3noc4cc(F)ccc34)CC1)CCCC2", "note": "[Risperidone, 3-[2-[4-(6-fluoro-1,2-benzisoxazol-3-yl)-1-piperidinyl]ethyl]-6,7,8,9-tetrahydro-2-methyl-4H-pyridol[1,2-a]pyrimidin-4-one]", "values": [{"measurement": "therapeutic index", "setting": "[4]; in vivo", "value": "relatively narrow therapeutic index"}, {"measurement": "undesirable side effects on overdosage", "setting": "[4]; overdosage", "value": "most notably extra pyramidal syndrome (EPS) and to a lesser extent hypotension"}, {"measurement": "metabolism", "setting": "[5]; in vivo", "value": "metabolized to 9-hydroxyrisperidone"}, {"measurement": "distribution to and elimination from the brain tissues", "setting": "[6]", "value": "more rapidly than its metabolite 9-hydroxy-risperidone"}]}, {"smiles": "Cc1nc2n(c(=O)c1CCN1CCC(c3noc4cc(F)ccc34)CC1)CCCC2", "note": "[risperidone pamoate]", "values": [{"measurement": "initial plasma levels", "setting": "[5]; suspension, WO-94/25460", "value": "relatively high initial plasma levels"}, {"measurement": "mean duration of action", "setting": "[5]; suspension, WO-94/25460", "value": "inadequate mean duration of action"}, {"measurement": "release of the active ingredient", "setting": "[5]; suspension, WO-94/25460", "value": "too rapid"}, {"measurement": "water solubility", "setting": "[7]", "value": "poorly water-soluble"}]}, {"smiles": "Cc1nc2n(c(=O)c1CCN1CCC(c3noc4cc(F)ccc34)CC1)CCCC2O", "note": "(stereo not shown) [9-hydroxyrisperidone]", "values": [{"measurement": "elimination half-life", "setting": "[5]; compared with risperidone", "value": "longer elimination half-life"}, {"measurement": "pharmacological profile and potency", "setting": "[8]", "value": "comparable with that of the parent drug risperidone"}]}]}
